# Data reported in EP0368158A1, “Imidazo pyridines” (Byk Gulden Lomberg Chemische Fabrik GmbH, priority 1988, dated 1990).
# Tested on: durch Pentagastrin stimulierte Säuresekretion des perfundierten Rattenmagens
# Assay: Inhibition of pentagastrin-stimulated acid secretion in the perfused rat stomach in vivo
# Parameters: species or system Ratte
# Text: Prüfung der sekretionshemmenden Wirkung am perfundierten Rattenmagen
# In der folgenden Tabelle 2 ist der Einfluß der erfindungsgemäßen Verbindungen nach intravenöser Gabe auf die durch Pentagastrin stimulierte Säuresekretion des perfundierten Rattenmagens in vivo dargestellt.
# Narkotisierten Ratten (CD-Ratte, weiblich, 200-250 g; 1,5 g/kg i.m. Urethan) wurde nach Tracheotomie das Abdomen durch einen medianen Oberbauchschnitt er-öffnet und ein PVC-Katheter transoral im Ösophagus sowie ein weiterer via Pylorus derart fixiert, daß die Schlauchenden eben noch in das Magenlumen hineinragten. Der aus dem Pylorus führende Katheter führte über eine seitliche Öffnung in der rechten Bauchwand nach außen.
# Nach gründlicher Spülung (ca.50-100 ml) wurde der Magen mit 37 °C warmer physiologischer NaCl-Lösung kontinuierlich durchströmt (0,5 ml/min, pH 6,8-6,9; Braun-Unita I). In dem jeweils im 15 min-Abstand aufgefangenen (25 ml Meßzylinder) Effluat wurde der pH-Wert (pH-Meter 632, Glaselektrode EA 147; ⌀ = 5 mm, Metrohm) sowie durch Titration mit einer frisch zubereiteten 0,01 N NaOH bis pH 7 (Dosimat 655 Metrohm) die sezernierte HCl bestimmt.
# Die Stimulation der Magensekretion erfolgte durch Dauerinfusion von 1µg/kg (=1,65 ml/h) i.v. Pentagastrin (V. fem. sin.) ca 30 min nach Operationsende (d.h. nach Bestimmung von 2 Vorfraktionen). […]
Structure (SMILES),"Maximale Hemmung der Säureausscheidung ca. ED50 +) (µmol/kg) i.v. (i.v., interpolated dose that causes a maximal inhibition of HCl secretion by 50 %, head says 'ca.')","ED50 (Rattus norvegicus, iv; i.v.; interpolated dose that causes a maximal inhibition of HCl secretion by 50 %; head says 'ca.'; read-out: Maximale Hemmung der Säureausscheidung ca. ED50 +) (µmol/kg) i.v.)"
"COCC(=O)O[C@@H]1Cc2cc(F)ccc2[C@H]1Oc1cccn2c(CO)c(C)nc12 (relative stereo) [Beispiel 5, 8-(5-Fluor-trans-2-methoxyacetoxy-2,3-dihydro-1-indenyloxy)-3-hydroxymethyl-2-methyl-imidazo[1,2-a]pyridin]","~0,8 µmol/kg",–
"COc1ccc(C(=O)O[C@@H]2Cc3ccccc3[C@H]2Oc2cccn3c(CO)c(C)nc23)cc1 (relative stereo) [Beispiel 2, 3-Hydroxymethyl-8-[trans-2-(4-methoxybenzoyloxy)-2,3-dihydro-1-indenyloxy]-2-methyl-imidazo[1,2-a]pyridin]",–,~1.1 µmol/kg
